Assay results taken from ChEMBL document CHEMBL1828542, “Synthesis and biological evaluation of substituted 4-arylthiazol-2-amino derivatives as potent growth inhibitors of replicating Mycobacterium tuberculosis H₃₇Rv” (Bioorg Med Chem Lett, 2011).
Converted amounts (≈) assume the structure as drawn.

Tests used:
[1] = system: Mycobacterium tuberculosis; assay: Antimicrobial activity against Mycobacterium tuberculosis H37Rv after 4 weeks by agar dilution assay; format: functional; conditions: 672 h
[2] = system: Mycobacterium tuberculosis; assay: Antimicrobial activity against Mycobacterium tuberculosis H37Rv after 11 days using [14]C labeled palmitic acid as substrate by radiometric Bactec 460TB method; format: functional; conditions: 264 h
[3] = Cytotoxicity against african green monkey Vero cells after 72 hrs by resazurin assay; format: cell-based; conditions: chlorocebus sabaeus
[4] = Selectivity index, ratio of CC50 african green monkey Vero cells to MIC for Mycobacterium tuberculosis H37Rv; format: functional
[5] = system: Mycobacterium tuberculosis; assay: Ratio of NTZ MIC to compound MIC for Mycobacterium tuberculosis H37Rv; format: functional
[6] = system: Mycobacterium tuberculosis; assay: Antimicrobial activity against replicating Mycobacterium tuberculosis; format: functional
[7] = system: Mycobacterium tuberculosis; assay: Antimicrobial activity against non-replicating Mycobacterium tuberculosis; format: functional

COc1ccc(-c2csc(N/N=C3/CCCc4c(OC)cccc43)n2)cc1OC
MIC [1]: 6.25 µg/mL (≈ 15.3 µM) | MIC [2]: 6.25 µM (≈ 2.56 µg/mL) | CC50 at 72 h [3]: > 244 µM | Ratio [4]: >=39 | fold change (FC) [5]: 3

COc1cccc2c1CCC/C2=N/Nc1nc(-c2ccc(Cl)cc2Cl)cs1
MIC [1]: 12.5 µg/mL (≈ 29.9 µM) | fold change (FC) [5]: 2

COc1cccc2c1CCC/C2=N/Nc1nc(-c2ccc(F)cc2)cs1
MIC [1]: 6.25 µg/mL (≈ 17 µM) | MIC [2]: 6.25 µM (≈ 2.3 µg/mL) | CC50 at 72 h [3]: > 300 µM | Ratio [4]: >=48 | fold change (FC) [5]: 3

COc1cccc2c1CCC/C2=N/Nc1nc(-c2cccc([N+](=O)[O-])c2)cs1
MIC [1]: 12.5 µg/mL (≈ 31.7 µM) | fold change (FC) [5]: 2

COc1ccc(-c2csc(N/N=C/c3cn(Cc4ccc(Cl)cc4Cl)c4ccccc34)n2)cc1OC
MIC [1]: > 12.5 µg/mL

Clc1ccc(Cn2cc(/C=N/Nc3nc(-c4ccc(Cl)cc4Cl)cs3)c3ccccc32)c(Cl)c1
MIC [1]: 12.5 µg/mL (≈ 22.9 µM)

Fc1ccc(-c2csc(N/N=C/c3cn(Cc4ccc(Cl)cc4Cl)c4ccccc34)n2)cc1
MIC [1]: > 12.5 µg/mL

Fc1ccc(Nc2nc(-c3ccc(F)cc3)cs2)cc1
MIC [1]: 1.8 µg/mL (≈ 6.24 µM) | MIC [2]: 12.5 µM (≈ 3.6 µg/mL) | fold change (FC) [5]: 9

COc1ccc(OC)c(Nc2nc(-c3ccc(F)cc3)cs2)c1
MIC [1]: > 12.5 µg/mL

COc1ccc(OC)c(Nc2nc(-c3cccc([N+](=O)[O-])c3)cs2)c1
MIC [1]: > 12.5 µg/mL

COc1ccc(-c2csc(Nc3cc(OC)ccc3OC)n2)cc1
MIC [1]: > 12.5 µg/mL

COc1ccc(-c2csc(Nc3ccccc3C(F)(F)F)n2)cc1OC
MIC [1]: > 12.5 µg/mL

Fc1ccc(-c2csc(Nc3ccccc3C(F)(F)F)n2)cc1
MIC [1]: > 12.5 µg/mL

O=[N+]([O-])c1cccc(-c2csc(Nc3ccccc3C(F)(F)F)n2)c1
MIC [1]: > 12.5 µg/mL

COc1ccc(-c2csc(Nc3ccccc3C(F)(F)F)n2)cc1
MIC [1]: > 12.5 µg/mL

NNC(=O)c1ccncc1 [ISONIAZID]
MIC [1]: < 1 µg/mL

CC(=O)Oc1ccccc1C(=O)Nc1ncc([N+](=O)[O-])s1 [NITAZOXANIDE]
MIC [6]: 52.1 µM (≈ 16 µg/mL) | MIC [7]: 52.1 µM (≈ 16 µg/mL)

CN[C@@H]1[C@H](O[C@H]2[C@H](O[C@H]3[C@H](O)[C@@H](O)[C@H](N=C(N)N)[C@@H](O)[C@@H]3N=C(N)N)O[C@@H](C)[C@]2(O)C=O)O[C@@H](CO)[C@H](O)[C@H]1O [STREPTOMYCIN]
MIC [2]: 6 µM (≈ 3.49 µg/mL)

O=C(Nc1ncc([N+](=O)[O-])s1)c1ccccc1O [TIZOXANIDE]
MIC [6]: 60.4 µM (≈ 16 µg/mL) | MIC [7]: 60.4 µM (≈ 16 µg/mL)
